The values that follow come from patent publication US20210038607A1, “OXADIAZOLYLTHIOPHENE DERIVATIVES USEFUL AS HISTONE DEACETYLASE INHIBITORS” (Karus Therapeutics Limited, priority 2018, published 2021).

The target in one assay is T1, Human HDAC7 (Homo sapiens, UniProt Q8WUI4).
T1 construct: (a.a. 518-end) with N-terminal GST tag; GST (N); host or cells: baculovirus expression system
T1 sequence (Q8WUI4 518-952 limits assumed): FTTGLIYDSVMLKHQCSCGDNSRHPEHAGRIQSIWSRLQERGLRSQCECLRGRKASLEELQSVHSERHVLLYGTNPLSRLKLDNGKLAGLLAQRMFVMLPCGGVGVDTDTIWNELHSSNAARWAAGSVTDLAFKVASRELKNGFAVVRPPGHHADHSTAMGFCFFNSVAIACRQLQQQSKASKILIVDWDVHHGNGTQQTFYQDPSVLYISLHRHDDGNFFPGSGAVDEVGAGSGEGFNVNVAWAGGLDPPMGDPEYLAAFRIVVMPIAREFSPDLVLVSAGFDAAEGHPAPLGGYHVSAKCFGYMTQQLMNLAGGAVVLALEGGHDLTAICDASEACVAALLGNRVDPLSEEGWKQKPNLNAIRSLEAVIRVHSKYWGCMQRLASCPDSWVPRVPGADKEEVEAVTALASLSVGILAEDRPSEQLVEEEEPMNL
Nature of the assay: HDAC7 biochemical assay, class IIa-specific substrate. The settings on record: read-out: HDAC Isoform IC50 (nM) 7. A digest of the protocol:
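Two-step fluorogenic readout: class IIa-selective trifluoroacetyl-lysine AMC substrate (50 μM) deacetylated by N-terminal GST-HDAC7 fragment (0.001 ng/ul), then digested by developer, Ex/Em 360/460. Reaction: 30 min, room temperature, Tris-HCl pH 8.0, NaCl/KCl/MgCl2, 1 mg/mL BSA, 1% DMSO.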

A further assay has as its target T2, Human HDAC9 (Homo sapiens, UniProt Q9UKV0).
T2 construct: amino acids 604-1066 with C-terminal His tag; His (C); host or cells: baculovirus expression system
Nature of the assay: HDAC9 biochemical assay, class IIa-specific substrate. The settings on record: read-out: HDAC Isoform IC50 (nM) 9. A digest of the protocol:
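HDAC9 residues 604-1066 (C-terminal His tag, baculovirus-expressed) at 0.06 ng/ul with 50 μM class IIa substrate Boc-Lys(trifluoroacetyl)-AMC in Tris-HCl pH 8.0 buffer with BSA and 1% DMSO. 30 min at room temperature, then developer added; fluorescence read at 360/460 nm Ex/Em.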

For a further assay, the target named is T3, Recombinant human HDAC6 (Homo sapiens, UniProt Q9UBN7).
T3 construct: full length, MW=159 kDa; GST (N); host or cells: Sf9 insect cells (baculovirus)
T3 sequence (Q9UBN7 1-1215): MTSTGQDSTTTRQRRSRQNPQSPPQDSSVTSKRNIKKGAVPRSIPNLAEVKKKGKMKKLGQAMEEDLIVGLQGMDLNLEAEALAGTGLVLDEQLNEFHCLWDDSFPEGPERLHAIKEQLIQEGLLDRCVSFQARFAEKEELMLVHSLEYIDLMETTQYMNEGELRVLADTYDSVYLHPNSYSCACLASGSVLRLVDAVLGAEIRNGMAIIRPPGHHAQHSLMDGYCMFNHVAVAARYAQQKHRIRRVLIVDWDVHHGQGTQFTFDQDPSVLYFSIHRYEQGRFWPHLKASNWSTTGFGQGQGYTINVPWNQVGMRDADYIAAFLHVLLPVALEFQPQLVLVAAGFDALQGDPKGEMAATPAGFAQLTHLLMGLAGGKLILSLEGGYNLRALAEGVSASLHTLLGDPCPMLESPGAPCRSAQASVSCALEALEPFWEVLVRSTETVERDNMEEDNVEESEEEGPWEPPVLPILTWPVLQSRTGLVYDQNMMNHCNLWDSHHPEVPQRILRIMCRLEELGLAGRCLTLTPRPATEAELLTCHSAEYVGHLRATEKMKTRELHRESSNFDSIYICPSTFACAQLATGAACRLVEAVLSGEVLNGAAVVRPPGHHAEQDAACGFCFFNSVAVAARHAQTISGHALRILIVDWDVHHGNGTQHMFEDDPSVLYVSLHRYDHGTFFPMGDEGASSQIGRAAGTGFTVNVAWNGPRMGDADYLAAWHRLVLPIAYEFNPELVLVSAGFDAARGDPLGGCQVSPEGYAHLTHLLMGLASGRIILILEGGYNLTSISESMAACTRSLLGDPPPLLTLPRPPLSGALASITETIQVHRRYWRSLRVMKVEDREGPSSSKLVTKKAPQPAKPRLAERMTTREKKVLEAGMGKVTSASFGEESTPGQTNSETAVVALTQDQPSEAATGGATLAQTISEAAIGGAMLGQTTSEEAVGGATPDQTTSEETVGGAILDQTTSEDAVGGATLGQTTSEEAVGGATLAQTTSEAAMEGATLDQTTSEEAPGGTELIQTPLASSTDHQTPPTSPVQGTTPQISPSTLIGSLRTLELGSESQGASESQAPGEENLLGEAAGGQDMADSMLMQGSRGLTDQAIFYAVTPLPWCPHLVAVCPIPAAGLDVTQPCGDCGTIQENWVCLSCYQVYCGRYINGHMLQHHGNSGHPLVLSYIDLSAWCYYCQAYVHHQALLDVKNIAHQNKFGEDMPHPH
The assay is described as follows: HDAC6 biochemical assay, AMC-labeled peptide substrate. The settings on record: HDAC6; read-out: HDAC Isoform IC50 (nM) 6. A digest of the protocol:
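Two-step fluorogenic read-out: enzyme deacetylates 50 μM RHKK(Ac)AMC for 1 h at 30° C in pH 8.0 Tris buffer with BSA and 1% DMSO, then developer cleavage gives signal at Ex 360/Em 460. Enzyme: 0.3 ng/ul recombinant full-length human HDAC6, GST-tagged, Sf9-expressed.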

Another assay has as its target T4, Human HDAC5 (Homo sapiens, UniProt Q9UQL6).
T4 construct: full length with C-terminal His tag, MW=51.1 kDa; His (C); host or cells: baculovirus expression system
Nature of the assay: HDAC5 biochemical assay, class IIa-specific substrate. The settings on record: read-out: HDAC Isoform IC50 (nM) 5. The method, boiled down:
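Two-step fluorogenic read-out: deacetylated trifluoroacetyl-lysine AMC substrate (50 μM) digested by developer, measured at Ex/Em 360/460. Deacetylation step: 0.05 ng/ul His-tagged full-length baculoviral enzyme with compound, 30 min, room temperature, pH 8.0 Tris with 1 mg/mL BSA and 1% DMSO.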

A further assay concerns the target T5, Human HDAC1 (Homo sapiens, UniProt Q13547).
T5 construct: full length with C-terminal His-tag and C-terminal FLAG-tag; His (C); FLAG (C); host or cells: baculovirus expression system
Nature of the assay: HDAC1 biochemical assay, AMC-labeled peptide substrate. The settings on record: read-out: HDAC Isoform IC50 (nM) 1. The method, boiled down: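 Two-step fluorogenic read: HDAC1 deacetylates 50 μM acetyl-lysine AMC peptide RHKK(Ac)AMC for 1 h at 30° C (pH 8.0, 1% DMSO, with compound), then developer digests the product for fluorescence at Ex/Em 360/460. Enzyme is full-length human, His/FLAG-tagged, insect-cell expressed, at 0.3 ng/ul.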

The target of another assay is T6, Human HDAC4 (Homo sapiens, UniProt P56524).
T6 construct: amino acids 627-1085 with N-terminal GST tag; GST (N); host or cells: baculovirus expression system
Nature of the assay: HDAC4 biochemical assay, class IIa-specific substrate. The settings on record: read-out: HDAC Isoform IC50 (nM) 4. A digest of the protocol: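 Two-step fluorogenic read-out: deacetylated BOC-Lys(trifluoroacetyl)-AMC (50 μM) was digested by developer and measured at Ex/Em 360/460. Deacetylation by 0.004 ng/ul HDAC4 (aa 627-1085, N-terminal GST) ran 30 min at room temperature, pH 8.0 Tris buffer, 1 mg/mL BSA, 1% DMSO.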

Structures are written as SMILES.

T4 sequence (Q9UQL6 656-1122 limits assumed): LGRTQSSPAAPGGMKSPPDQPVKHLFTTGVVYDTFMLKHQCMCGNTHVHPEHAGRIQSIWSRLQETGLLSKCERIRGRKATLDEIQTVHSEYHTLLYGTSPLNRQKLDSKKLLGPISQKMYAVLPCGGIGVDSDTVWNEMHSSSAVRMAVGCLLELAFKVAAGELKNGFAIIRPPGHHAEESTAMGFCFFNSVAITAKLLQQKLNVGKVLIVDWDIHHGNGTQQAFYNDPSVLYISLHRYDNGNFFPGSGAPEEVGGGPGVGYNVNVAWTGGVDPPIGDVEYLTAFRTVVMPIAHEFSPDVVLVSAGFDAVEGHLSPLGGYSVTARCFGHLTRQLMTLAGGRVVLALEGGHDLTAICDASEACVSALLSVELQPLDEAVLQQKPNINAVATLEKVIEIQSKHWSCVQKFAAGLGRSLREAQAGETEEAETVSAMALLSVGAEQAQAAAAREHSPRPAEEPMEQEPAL
T6 sequence (P56524 627-1084 limits assumed): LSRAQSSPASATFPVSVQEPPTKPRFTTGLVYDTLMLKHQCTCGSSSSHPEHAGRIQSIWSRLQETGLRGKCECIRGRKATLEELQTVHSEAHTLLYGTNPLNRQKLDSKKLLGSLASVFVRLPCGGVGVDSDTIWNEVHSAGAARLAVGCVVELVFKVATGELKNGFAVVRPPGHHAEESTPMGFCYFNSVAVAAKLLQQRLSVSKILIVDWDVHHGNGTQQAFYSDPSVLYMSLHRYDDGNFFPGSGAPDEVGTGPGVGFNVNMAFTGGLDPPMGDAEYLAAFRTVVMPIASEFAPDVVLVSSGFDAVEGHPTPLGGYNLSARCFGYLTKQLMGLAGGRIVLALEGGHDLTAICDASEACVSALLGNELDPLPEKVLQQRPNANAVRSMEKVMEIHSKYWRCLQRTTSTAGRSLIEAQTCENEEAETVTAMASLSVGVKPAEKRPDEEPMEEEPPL
T5 sequence (Q13547 whole entry): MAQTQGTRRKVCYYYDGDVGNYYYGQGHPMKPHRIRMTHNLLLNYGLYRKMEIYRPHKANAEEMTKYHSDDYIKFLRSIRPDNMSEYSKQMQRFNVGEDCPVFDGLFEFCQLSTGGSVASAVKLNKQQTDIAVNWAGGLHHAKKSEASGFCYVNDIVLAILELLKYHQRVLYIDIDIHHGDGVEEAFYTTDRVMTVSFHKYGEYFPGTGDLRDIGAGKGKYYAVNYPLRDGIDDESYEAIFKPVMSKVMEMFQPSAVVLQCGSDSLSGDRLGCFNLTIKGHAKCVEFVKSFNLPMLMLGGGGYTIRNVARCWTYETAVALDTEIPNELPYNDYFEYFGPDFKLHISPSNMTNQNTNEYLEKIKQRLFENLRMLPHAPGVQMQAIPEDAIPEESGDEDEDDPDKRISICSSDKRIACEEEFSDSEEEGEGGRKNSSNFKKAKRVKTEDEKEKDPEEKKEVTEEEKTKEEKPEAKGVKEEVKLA
T2 sequence (Q9UKV0 604-1066 isoform Q9UKV0-5): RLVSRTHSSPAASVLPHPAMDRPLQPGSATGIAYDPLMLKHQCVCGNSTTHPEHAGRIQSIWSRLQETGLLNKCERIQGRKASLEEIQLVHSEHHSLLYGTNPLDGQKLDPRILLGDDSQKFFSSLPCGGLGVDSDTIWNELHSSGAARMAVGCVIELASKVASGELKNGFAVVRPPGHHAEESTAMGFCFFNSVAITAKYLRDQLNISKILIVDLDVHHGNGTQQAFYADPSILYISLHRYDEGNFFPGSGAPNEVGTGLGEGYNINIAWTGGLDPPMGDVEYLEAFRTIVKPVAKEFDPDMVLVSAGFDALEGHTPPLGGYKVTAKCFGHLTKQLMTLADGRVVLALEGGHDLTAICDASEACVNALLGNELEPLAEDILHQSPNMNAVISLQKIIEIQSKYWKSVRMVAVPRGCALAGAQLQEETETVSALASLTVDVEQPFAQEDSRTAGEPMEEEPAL

Take `COc1ccc(N(Cc2ccc(-c3noc(C(F)(F)F)n3)s2)c2cnccn2)nn1` [Example DG, 6-Methoxy-N-(pyrazin-2-yl)-N-({5-[5-(trifluoromethyl)-1,2,4-oxadiazol-3-yl]thiophen-2-yl}methyl)pyridazin-3-amine]: the IC50 on Human HDAC7 was at most 10000 nM; on Human HDAC9, at most 10000 nM; on Recombinant human HDAC6, at most 1000 nM; on Human HDAC5, at most 1000 nM; on Human HDAC1 it was over 10000 nM; on Human HDAC4, at most 1000 nM.
As to `COc1cncc(N(Cc2ccc(-c3noc(C(F)(F)F)n3)s2)c2cncc(OC)n2)n1` [Example BY, 6-Methoxy-N-(6-methoxypyrazin-2-yl)-N-({5-[5-(trifluoromethyl)-1,2,4-oxadiazol-3-yl]thiophen-2-yl}methyl)pyrazin-2-amine], the concentration for half-maximal inhibition (IC50) at Human HDAC7 is at most 10000 nM; on Human HDAC9, at most 10000 nM; at Recombinant human HDAC6, at most 10000 nM; on Human HDAC5 it was at most 10000 nM; on Human HDAC1, over 10000 nM; at Human HDAC4, at most 10000 nM.
`COc1nccc(N(Cc2ccc(-c3noc(C(F)(F)F)n3)s2)c2cnccn2)n1` [Example CB, 2-Methoxy-N-(pyrazin-2-yl)-N-({5-[5-(trifluoromethyl)-1,2,4-oxadiazol-3-yl]thiophen-2-yl}methyl)pyrimidin-4-amine]: the IC50 was at most 1000 nM at Human HDAC7; at most 10000 nM at Human HDAC9; at most 1000 nM on Recombinant human HDAC6; at most 1000 nM on Human HDAC5; over 10000 nM on Human HDAC1; at most 500 nM on Human HDAC4.
Consider `Cc1ccnc(N(Cc2ccc(-c3noc(C(F)(F)F)n3)s2)c2cnccn2)n1` [Example AT, 4-Methyl-N-(pyrazin-2-yl)-N-({5-[5-(trifluoromethyl)-1,2,4-oxadiazol-3-yl]thiophen-2-yl}methyl)pyrimidin-2-amine], for which the IC50 at Human HDAC7 is at most 10000 nM; on Human HDAC9, at most 10000 nM; at Recombinant human HDAC6, at most 10000 nM; at Human HDAC5 it was at most 10000 nM; at Human HDAC1, over 10000 nM; on Human HDAC4, at most 10000 nM.
For `FC(F)(F)c1nc(-c2ccc(CN(c3cnccn3)c3cncnc3C(F)(F)F)s2)no1` [Example DA, N-(Pyrazin-2-yl)-4-(trifluoromethyl)-N-({5-[5-(trifluoromethyl)-1,2,4-oxadiazol-3-yl]thiophen-2-yl}methyl)pyrimidin-5-amine], the half-inhibitory concentration (IC50) was at most 10000 nM at Human HDAC7; at most 10000 nM at Human HDAC9; at most 10000 nM at Recombinant human HDAC6; at most 10000 nM on Human HDAC5; over 10000 nM at Human HDAC1; at most 1000 nM at Human HDAC4.
As for `COc1cnc(N(Cc2ccc(-c3noc(C(F)(F)F)n3)s2)c2cnccn2)nc1` [Example AY, 5-Methoxy-N-(pyrazin-2-yl)-N-({5-[5-(trifluoromethyl)-1,2,4-oxadiazol-3-yl]thiophen-2-yl}methyl)pyrimidin-2-amine], the IC50 at Human HDAC7 is at most 10000 nM; at Human HDAC9 it was at most 10000 nM; on Recombinant human HDAC6, at most 1000 nM; at Human HDAC5 it was at most 10000 nM; at Human HDAC1, at most 10000 nM; at Human HDAC4, at most 10000 nM.
For the compound `FC(F)(F)c1nc(-c2ccc(CN(c3cnccn3)c3cnc(-c4ccco4)cn3)s2)no1` [Example BJ, 5-(Furan-2-yl)-N-(pyrazin-2-yl)-N-({5-[5-(trifluoromethyl)-1,2,4-oxadiazol-3-yl]thiophen-2-yl}methyl)pyrazin-2-amine], the concentration for half-maximal inhibition (IC50) is at most 10000 nM at Human HDAC7; at most 10000 nM at Human HDAC9; at most 10000 nM on Recombinant human HDAC6; at most 10000 nM at Human HDAC5; at most 10000 nM on Human HDAC1; at most 1000 nM on Human HDAC4.
Consider `FC(F)(F)c1nc(-c2ccc(CN(c3cnccn3)c3ccc4ccncc4n3)s2)no1` [Example Y, N-(Pyrazin-2-yl)-N-({5-[5-(trifluoromethyl)-1,2,4-oxadiazol-3-yl]thiophen-2-yl}methyl)-1,7-naphthyridin-2-amine], for which the IC50 was at most 1000 nM at Human HDAC7; at most 1000 nM on Human HDAC9; at most 1000 nM at Recombinant human HDAC6; at most 1000 nM on Human HDAC5; over 10000 nM at Human HDAC1; at most 500 nM at Human HDAC4.
Consider `FC(F)(F)c1nc(-c2ccc(CN(c3cnc(C4CC4)nc3)c3cnccn3)s2)no1` [Example CU, 2-Cyclopropyl-N-(pyrazin-2-yl)-N-({5-[5-(trifluoromethyl)-1,2,4-oxadiazol-3-yl]thiophen-2-yl}methyl)pyrimidin-5-amine], for which the 50% inhibitory concentration (IC50) was at most 1000 nM at Human HDAC7; at most 10000 nM at Human HDAC9; at most 10000 nM at Recombinant human HDAC6; at most 1000 nM at Human HDAC5; over 10000 nM on Human HDAC1; at most 500 nM at Human HDAC4.
Consider `FC(F)(F)c1nc(-c2ccc(CN(c3cnccn3)c3cscn3)s2)no1` [Example T, N-(1,3-Thiazol-4-yl)-N-({5-[5-(trifluoromethyl)-1,2,4-oxadiazol-3-yl]thiophen-2-yl}methyl)pyrazin-2-amine], for which the concentration for half-maximal inhibition (IC50) is at most 10000 nM at Human HDAC7; at most 10000 nM on Human HDAC9; at most 10000 nM at Recombinant human HDAC6; at most 1000 nM on Human HDAC5; at most 10000 nM on Human HDAC1; at most 1000 nM at Human HDAC4.
